Test results reported in patent US20160274087A1, “SCREENING ASSAY FOR AGENTS THAT INFLUENCE BETA CELL NUMBER AND/OR PHENOTYPE” (VRIJE UNIVERSITEIT BRUSSEL, priority 2013, published 2016).

Columns and labels:
rat beta cells [1] = test: Beta cell viability / cell death (propidium iodide assay); assay type: cell-based; conditions: for Percent viable cells: LOPAC screen at 1 μM, adult rat beta cells, day 6, control medium 97
Source text: Numbers of living beta cells were obtained by subtracting the PI-positive cell numbers from the Ho-positive cell numbers, and correcting for the percent insulin-negative cells, as determined following insulin-immunofluorescence staining. They were expressed as percent of the numbers on day 1. […] To detect beta cells that underwent two successive cycles, cells were sequentially exposed to two different thymidine-analogs, first EdU from day 3 to 6, and then BrdU (100 μmol/l) from day 7 to 10, with a 24-hour label-free period in between. EdU-positive (EdU^+) nuclei were detected with the Click-iT Assay kit (Invitrogen), while BrdU-positive (BrdU^+) nuclei were identified with anti-BrdU antibody.
(§1) Absolute number of cells was determined by whole-well imaging using the BD-PathwayBioimager855 (BD-Biosciences). IPLab and AttoVision software packages (BD-Biosciences) were used for image background subtraction, segmentation and quantification.
Freshly purified beta cells were cultured in control medium for 24 h prior to the addition of the LOPAC test compounds (day 1). The culture medium was refreshed on day 3 and the cells were then cultured further with 5-ethynyl-2′-deoxyuridine (EdU; 10 μM) up to day 6. […] Thus, a compound is considered a hit only if it increases the percent EdU incorporation to above three standard deviation of the plate-averaged percent EdU incorporation.

rat beta cells [2] = test: Beta cell DNA synthesis/proliferation by EdU (and BrdU) incorporation, incl. LOPAC screen; assay type: cell-based; conditions: for Percent EdU+ cells / Z-Score: LOPAC screen at 1 μM, adult rat beta cells, EdU day 3 to 6; for Percent EdU+ cells: control medium 5.6; for Z-Score: hit cut-off three standard deviations
Procedure: (§2) On day 1, 9 and 15 of culture, total numbers of living beta cells per well were determined by semi-automatic cell count, after Hoechst 33342 (Ho) and propidium iodide (PI) staining. Numbers of living beta cells were obtained by subtracting the PI-positive cell numbers from the Ho-positive cell numbers, and correcting for the percent insulin-negative cells, as determined following insulin-immunofluorescence staining. They were expressed as percent of the numbers on day 1. Each condition was also evaluated for increases in the percentage of proliferating beta cells (incorporating the thymidine-analogue 5-ethynyl-2′-deoxyuridine, EdU; 100 μmol/l). To detect beta cells that underwent two successive cycles, cells were sequentially exposed to two different thymidine-analogs, first EdU from day 3 to 6, and then BrdU (100 μmol/l) from day 7 to 10, with a 24-hour label-free period in between. EdU-positive (EdU^+) nuclei were detected with the Click-iT Assay kit (Invitrogen), while BrdU-positive (BrdU^+) nuclei were identified with anti-BrdU antibody.
Freshly purified beta cells were cultured in control medium for 24 h prior to the addition of the LOPAC test compounds (day 1). The culture medium was refreshed on day 3 and the cells were then cultured further with 5-ethynyl-2′-deoxyuridine (EdU; 10 μM) up to day 6. Cell viability and percentage EdU incorporation were quantified after imaging and image analysis using the BD Pathway Bioimager, as described before (Assefa et al., 2014). To test the significance of compound effect on beta cell proliferation, average Z-score for each compound was calculated and a cut-off for potential positive hits was set at a Z-score of greater than three standard deviations. Thus, a compound is considered a hit only if it increases the percent EdU incorporation to above three standard deviation of the plate-averaged percent EdU incorporation.
(§3) Sorted beta cells were seeded in 384-well or 6-well plates coated with 804G matrix, and kept in culture for up to 15 days at 37° C. 5% CO2 using Ham F10 supplemented with 1 mM L-glutamine, 0.1 mg/ml streptomycin, 0.075 mg/ml penicillin, 50 μM of isobutyl-1-methylxanthine (IBMX) at 10 mM D-glucose with and without synthetic GCs (6 methyl-prednisolone (6MP), dexamethasone (DEX), GR-modulators (compound A (CPA), mifepristone (MIF), and NFκB inhibitors (JSH-23 en Bay11-7085). Total cell number and beta cell viability was evaluated after incubation with Hoechst 33342 and propidium iodide. All chemicals were from Sigma Life Sciences or Merck. Quantification of cell numbers and analysis of beta-cell viability was done using the Pathway Bioimager (BD Biosciences) and using IPlab and Attovision software for background subtraction as described prior (Assefa et al., 2014). Replicating beta cells were quantified after 24 or 72 hrs incubation with 5-ethynyl-2′-deoxyuridine (EdU, a thymidine analog) using the ClickIT EDU Alexa Fluor assay (Invitrogen). EdU-positive cells were expressed as percentage of total cell number.

rat beta cells [3] = test: Number of living beta cells in culture (Hoechst 33342/propidium iodide whole-well imaging counts; expansion assay); assay type: cell-based
Procedure: (§4) Beta cells were FACS-purified from islet-cell enriched suspensions (Pipeleers et al., 1985) prepared from neonatal (2-3 days-old) and adolescent or adult (8 or 40-week-old, male) Wistar rats (Janvier Bioservices, France); their purity was, respectively 70-75% and over 90%. Sorted cells were counted in a hemocytometer, seeded (day 0) and cultured for up to 15 days in serum-free Ham's-F10 medium at 5, 10 or 20 mmol/l glucose, supplemented with 2 mmol/l L-glutamine, 50 μM 3-isobutyl-1-methylxanthine, 0.5% Albumax-I, penicillin (100 U/ml) and streptomycin (0.1 mg/ml). The 10 mmol/l glucose condition is known to maintain beta cell survival over 9-days (Ling et al., 1994; Ling and Pipeleers, 1994). Medium and cells were retrieved after selected culture periods and assayed for insulin content; data were expressed as a function of the number of living beta cells that was determined in parallel wells.
as §2, §1
Experimental procedures for isolation of beta cells from neonatal (2-3 days old) and adult (8 or 40 week old, male) Wistar rats (Janvier Bioservices, France) and analysis of their number, viability and proliferation activity in culture have been described before (Assefa et al., 2014). Sorted beta cells were seeded in 804G matrix-coated plates (designated as day 0) and the numbers and viability of seeded cells at the start of all experiments were determined on day 1 (24 h after seeding). The cells were cultured in control medium, which is a serum-free Ham's F10 medium supplemented with 2 mM L-glutamine, 50 μM 3-isobutyl-1-methylxanthine, 0.5% Albumax I, penicillin (100 U/ml), streptomycin (0.1 mg/ml) and, unless indicated otherwise, 10 mM glucose.
as §3, with “2014).” for “2014). Replicating beta cells were quantified after 24 or 72 hrs incubation with 5-ethynyl-2′-deoxyuridine (EdU, a thymidine analog) using the ClickIT EDU Alexa Fluor assay (Invitrogen). EdU-positive cells were expressed as percentage of total cell number.”

rat beta cells [4] = test: Cellular insulin content, insulin release and glucose-stimulated insulin secretion of cultured beta cells; assay type: cell-based
Procedure: as §4

[5] = test system: GR trans-repression and trans-activation targets, cell cycle genes and beta cell phenotype markers; test: Q-PCR of mRNA levels in cultured beta cells; assay type: cell-based, rat; conditions: 9 days culture; 1 μM 6MP, 1 μM MIF, 0.5 μM CPA; vehicle = 1.0

## CS(=O)(=O)c1ccc([C@@H](CC2CCCC2)C(=O)Nc2nccs2)cc1 [GKA, RO-28-1675]
Rat beta cells [1]; 10 mM glucose, irrespective of MP, data not shown
  effect of 15-day continuous treatment on beta cell survival: induces cytotoxicity and a net cell loss
Rat beta cells [1]; GKA 3 μm, beta cells from 8- and 40-week old rats, 5 mmol/l glucose, data not shown
  marked cytotoxicity at day 15: not observed
Rat beta cells [1]; GKA 3 μm, neonatal beta cells, 5 mmol/l glucose
  dead cells at day 15 (cytotoxicity): > 50%

## C[C@]12CCC(=O)C=C1CC[C@@H]1[C@@H]2CC[C@@]2(C)[C@H]1CC[C@]2(O)C(=O)CO [Cortexolone]
Rat beta cells [2]
  Percent EdU+ cells: 13.1%
  Z-Score: 4.1
Rat beta cells [1]
  Percent viable cells: 97%

## C[C@H]1C[C@H]2[C@@H]3CCC4=CC(=O)C=C[C@]4(C)[C@@]3(F)[C@@H](O)C[C@]2(C)[C@@]1(O)C(=O)CO [Betamethasone]
Rat beta cells [2]
  Percent EdU+ cells: 21.1%
  Z-Score: 5.5
Rat beta cells [1]
  Percent viable cells: 95%

## CCCC1O[C@@H]2C[C@H]3[C@@H]4CCC5=CC(=O)C=C[C@]5(C)[C@H]4[C@@H](O)C[C@]3(C)[C@]2(C(=O)CO)O1 (stereo partly shown) [Budesonide]
Rat beta cells [2]
  Percent EdU+ cells: 24.9%
  Z-Score: 4.1
Rat beta cells [1]
  Percent viable cells: 97%

## C[C@@H]1C[C@@H]([C@H](O)CC2CC(=O)NC(=O)C2)C(=O)[C@@H](C)C1 [cycloheximide]
Rat beta cells [1]; within 48 h, purified rat beta cells
  number of dead cells (induction of apoptosis): dose-dependent increase in the number of dead cells

## C[C@H]1C[C@@H]2[C@H]([C@@H](O)C[C@@]3(C)[C@H]2CC[C@]3(O)C(=O)CO)[C@@]2(C)C=CC(=O)C=C12 [6MP, 6-methylprednisolone]
Rat beta cells [3]; 10 mM glucose and MP
  cells after 15-day culture compared to day 1 numbers: 152±5%
Rat beta cells [3]; 6MP 1 μM, DEX 0.01 μM, CPA 0.5 μM
  change of beta cell numbers between day 1 and 15: nearly double
Rat beta cells [3]; two-weeks culture
  increase in absolute number of living beta cells in culture: near population doubling
Rat beta cells [2]; survival and proliferation of rat beta cells, data not shown
  final concentration of optimal potency (dose-response studies): 1000 nM
Rat beta cells [4]; 9 days, 6MP followed by 6 days, basal
  Insulin Release during last 72 h of culture: 1.6 ± 1 ng/10^3 cells/h
Rat beta cells [4]; 9 days, 6MP followed by 6 days, basal, 2.5 mM glucose
  glucose-induced insulin secretion, Day 15: 24.4 ± 3.3 % of content/h
Rat beta cells [4]; 9 days, 6MP followed by 6 days, basal, 5 mM glucose
  glucose-induced insulin secretion, Day 15: 34.3 ± 3.9 % of content/h
Rat beta cells [4]; 9 days, 6MP followed by 6 days, basal, 10 mM glucose
  glucose-induced insulin secretion, Day 15: 46.8 ± 7.7 % of content/h
Rat beta cells [4]; 9 days, 6MP followed by 6 days, basal, 20 mM glucose
  glucose-induced insulin secretion, Day 15: 52.1 ± 1.8 % of content/h
Rat beta cells [4]; 15 days, 6MP
  Insulin Release during last 72 h of culture: 0.9 ± 0.1 ng/10^3 cells/h
Rat beta cells [4]; 15 days, 6MP, 2.5 mM glucose
  glucose-induced insulin secretion, Day 15: 35.3 ± 7.4 % of content/h
Rat beta cells [4]; 15 days, 6MP, 5 mM glucose
  glucose-induced insulin secretion, Day 15: 37.7 ± 4.0 % of content/h
Rat beta cells [4]; 15 days, 6MP, 10 mM glucose
  glucose-induced insulin secretion, Day 15: 43.2 ± 6.8 % of content/h
Rat beta cells [4]; 15 days, 6MP, 20 mM glucose
  glucose-induced insulin secretion, Day 15: 44.0 ± 4.8 % of content/h
[5]
  CDK4 mRNA level (ΔΔCt values relative to basal vehicle control): 1.7 ± 0.2^2
  CXCL11 mRNA level (ΔΔCt values relative to basal vehicle control): 0.1 ± 0.0^3
  Cyclin B1 mRNA level (ΔΔCt values relative to basal vehicle control): 4.7 ± 0.7^3
  Cyclin B2 mRNA level (ΔΔCt values relative to basal vehicle control): 4.8 ± 0.8^3
  Cyclin E1 mRNA level (ΔΔCt values relative to basal vehicle control): 2.3 ± 0.3^3
  CyclinD1 mRNA level (ΔΔCt values relative to basal vehicle control): 0.8 ± 0.1^
  DLK1 mRNA level (ΔΔCt values relative to basal vehicle control): 24491 ± 5157^3
  FKBP4 mRNA level (ΔΔCt values relative to basal vehicle control): 1.2 ± 0.1^
  FKBP5 mRNA level (ΔΔCt values relative to basal vehicle control): 15.4 ± 2.2^3
  GDF11 mRNA level (ΔΔCt values relative to basal vehicle control): 3.8 ± 1.0^3
  ICAM1 mRNA level (ΔΔCt values relative to basal vehicle control): 0.1 ± 0.1^3
  MKP1 mRNA level (ΔΔCt values relative to basal vehicle control): 20.7 ± 4.2^3
  MafA mRNA level (ΔΔCt values relative to basal vehicle control): 0.2 ± 0.1^3
  MafB mRNA level (ΔΔCt values relative to basal vehicle control): 5.1 ± 0.9^3
  NNAT mRNA level (ΔΔCt values relative to basal vehicle control): 7.4 ± 1.8^3
  NPY mRNA level (ΔΔCt values relative to basal vehicle control): 3.8 ± 0.6^3
  NR3C1 mRNA level (ΔΔCt values relative to basal vehicle control): 1.0 ± 0.1^
  Pdx1 mRNA level (ΔΔCt values relative to basal vehicle control): 0.5 ± 0.2^3
  TRH mRNA level (ΔΔCt values relative to basal vehicle control): 5.3 ± 0.5^3

## C[C@H]1C[C@H]2[C@@H]3CCC4=CC(=O)C=C[C@]4(C)[C@@]3(Cl)[C@@H](O)C[C@]2(C)[C@@]1(O)C(=O)CO [Beclomethasone]
Rat beta cells [2]
  Percent EdU+ cells: 20.6%
  Z-Score: 5.9
Rat beta cells [1]
  Percent viable cells: 96%
